Laboratory results: ChEMBL document CHEMBL1201862, “PubChem BioAssay data set” (2004)
“And” between values parts separate entries of the source, which are not always exact repeats. Equal entries are not always repeated. The source made the active and inactive calls.

Tests used:
[1] = target: Cytochrome P450 2D6 (Homo sapiens, UniProt P10635);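 further: CYP2D6 member of a cytochrome P450 panel assay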
[2] = target: T1, Cytochrome P450 3A4 (Homo sapiens, UniProt P08684);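 further: CYP3A4 tested as one member of a cytochrome P450 panel screen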
[3] = target: T1, Cytochrome P450 3A4; remark: listed apart in the source
[4] = tested on: H4; assay: Luminescence Cell-Based Dose Response HTS to Identify Activators of 5'UTR Stem-Loop Driven Prion Protein mRNA Translation in H4 Neuroglioblastoma Cells. [Related pubchem assays: 1829 (Project Summary), 1814 (Primary HTS)]; format: functional; settings: Homo sapiens
[5] = Luminescence Cell-Based Dose Response to Identify Activators of Luciferase Translation or Activity in H4-C Neuroglioblastoma Cells. [Related pubchem assays: 1829 (Project Summary), 1814 (Primary HTS)]; format: functional
[6] = Luminescence Cell-Based Dose Response HTS to Identify Activators of Luciferase Translation or Activity in H4 […] Cells. [Related pubchem assays: 1829 (Project Summary), 1814 (Primary HTS)]; format: functional
[7] = Luminescence Cell-Based Dose Confirmation to Identify Activators of 5'UTR Stem-Loop Driven Alpha-Synuclein mRNA Translation in H4 Neuroglioblastoma Cells. [Related pubchem assays: 1829 (Project Summary), 1814 (Primary HTS)]; format: functional
[8] = Luminescence Cell-Based Dose Confirmation HTS to Identify Activators of 5'UTR Stem-Loop Driven Alpha-Synuclein mRNA Translation in H4 Neuroglioblastoma Cells. [Related pubchem assays: 1829 (Project Summary), 1814 (Primary HTS)]; format: functional
[9] = Luminescence Cell-Based Dose Response to Identify Activators of 5'UTR Stem-Loop Driven Prion Protein mRNA Translation in H4-C Neuroglioblastoma Cells. [Related pubchem assays: 1829 (Project Summary), 1814 (Primary HTS)]; format: functional
[10] = target: T2, Cytochrome P450 1A2 (Homo sapiens, UniProt P05177);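 further: PubChem cytochrome P450 panel assay, CYP1A2 panel member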
T2 sequence (P05177 whole entry): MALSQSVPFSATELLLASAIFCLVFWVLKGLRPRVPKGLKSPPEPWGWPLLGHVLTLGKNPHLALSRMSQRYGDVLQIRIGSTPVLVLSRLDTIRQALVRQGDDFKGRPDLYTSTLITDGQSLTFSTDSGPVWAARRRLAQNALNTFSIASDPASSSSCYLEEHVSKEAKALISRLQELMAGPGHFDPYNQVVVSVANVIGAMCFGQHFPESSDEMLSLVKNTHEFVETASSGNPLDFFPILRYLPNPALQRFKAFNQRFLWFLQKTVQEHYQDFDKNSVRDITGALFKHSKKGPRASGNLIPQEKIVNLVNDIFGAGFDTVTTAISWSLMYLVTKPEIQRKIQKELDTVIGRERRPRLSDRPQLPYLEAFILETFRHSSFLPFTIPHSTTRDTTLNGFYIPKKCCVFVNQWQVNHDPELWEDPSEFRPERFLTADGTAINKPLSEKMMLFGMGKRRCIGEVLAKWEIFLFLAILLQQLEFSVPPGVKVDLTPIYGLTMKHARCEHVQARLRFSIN

[11] = tested on: Jurkat; assay: blockers of NF-kB activation in T cells – Jurkat, luciferase reporter, luminescence, B- and T-cell, dose response (AID 489004); format: functional, cell-based; settings: Homo sapiens;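 further: NF-kB luciferase reporter Jurkat cells stimulated with PMA plus ionomycin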
[12] = HEK-293T viability loss, compound-treated – cell-based, uHTS hits, cytotoxicity control for B/T-cell NF-kB inhibitor project, dose response (AID 489019); format: functional;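 further: IC50 reflects cytotoxicity as loss of cell viability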
[13] = target: T3, Cytochrome P450 2C9 (Homo sapiens, UniProt P11712)
[14] = target: T4, Short transient receptor potential channel 4 (Mus musculus, UniProt Q9QUQ5); assay: block of DAMGO-driven TRPC4 calcium entry – cell-based, HEK293 TRPC4/mu-opioid, Fluo-4 calcium, dose response (AID 434942); format: functional;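 further: potency of inhibitors blocking the TRPC4 calcium response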
T4 sequence (Q9QUQ5 whole entry): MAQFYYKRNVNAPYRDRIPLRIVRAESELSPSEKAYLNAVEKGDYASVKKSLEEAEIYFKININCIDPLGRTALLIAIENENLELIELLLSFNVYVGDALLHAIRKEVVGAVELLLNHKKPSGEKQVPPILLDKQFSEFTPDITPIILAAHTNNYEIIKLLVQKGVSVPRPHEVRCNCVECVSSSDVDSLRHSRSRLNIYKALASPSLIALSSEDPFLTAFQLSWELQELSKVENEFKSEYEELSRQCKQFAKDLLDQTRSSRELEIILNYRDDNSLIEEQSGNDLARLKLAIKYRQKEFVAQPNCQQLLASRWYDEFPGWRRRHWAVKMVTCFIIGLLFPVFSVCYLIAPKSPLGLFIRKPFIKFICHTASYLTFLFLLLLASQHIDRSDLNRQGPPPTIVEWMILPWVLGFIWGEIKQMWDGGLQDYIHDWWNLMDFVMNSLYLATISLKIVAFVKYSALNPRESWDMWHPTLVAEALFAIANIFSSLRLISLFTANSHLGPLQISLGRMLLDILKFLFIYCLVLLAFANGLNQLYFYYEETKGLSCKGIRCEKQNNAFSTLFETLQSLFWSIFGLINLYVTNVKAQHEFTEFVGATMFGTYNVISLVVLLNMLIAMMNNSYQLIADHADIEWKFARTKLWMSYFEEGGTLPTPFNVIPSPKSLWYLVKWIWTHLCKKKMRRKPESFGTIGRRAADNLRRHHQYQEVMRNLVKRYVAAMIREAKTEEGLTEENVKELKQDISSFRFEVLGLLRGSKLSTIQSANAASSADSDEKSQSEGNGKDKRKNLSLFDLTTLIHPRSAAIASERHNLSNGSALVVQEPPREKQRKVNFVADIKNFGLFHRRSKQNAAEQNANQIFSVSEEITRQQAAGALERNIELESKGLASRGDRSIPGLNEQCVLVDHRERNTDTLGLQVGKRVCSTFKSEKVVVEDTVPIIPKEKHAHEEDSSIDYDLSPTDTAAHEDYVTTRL

[15] = target: Cytochrome P450 2C19 (Homo sapiens, UniProt P33261); assay: Cytochrome panel assay with activity outcomes. Panel member name: p450-cyp2c19 Compounds with AC50 equal or less than 10 uM are considered active; format: functional; settings: read-out: AC50
[16] = target: T5, Coagulation factor XII (Homo sapiens, UniProt P00748); format: functional;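 further: activated factor XIIa alpha cleaving a fluorogenic AMC peptide substrate; inhibitor potency from loss of enzyme activity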
T5 sequence (P00748 whole entry): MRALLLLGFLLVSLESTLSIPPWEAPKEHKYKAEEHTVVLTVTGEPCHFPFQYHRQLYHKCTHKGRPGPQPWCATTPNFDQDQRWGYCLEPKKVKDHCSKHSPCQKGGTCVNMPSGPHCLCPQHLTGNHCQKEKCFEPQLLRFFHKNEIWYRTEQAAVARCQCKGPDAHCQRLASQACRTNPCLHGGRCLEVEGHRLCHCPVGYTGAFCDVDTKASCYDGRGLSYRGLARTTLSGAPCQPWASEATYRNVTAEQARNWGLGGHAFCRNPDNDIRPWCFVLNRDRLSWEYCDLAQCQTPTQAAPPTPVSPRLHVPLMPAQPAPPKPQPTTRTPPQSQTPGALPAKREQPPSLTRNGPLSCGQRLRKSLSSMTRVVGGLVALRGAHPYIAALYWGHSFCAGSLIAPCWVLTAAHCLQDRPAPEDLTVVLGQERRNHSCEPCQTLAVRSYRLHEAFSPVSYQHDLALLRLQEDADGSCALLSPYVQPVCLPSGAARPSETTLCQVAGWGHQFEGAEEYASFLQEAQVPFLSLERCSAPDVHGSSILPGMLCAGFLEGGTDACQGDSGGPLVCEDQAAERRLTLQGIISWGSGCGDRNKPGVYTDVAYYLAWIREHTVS

[17] = target: T6, Heat shock factor protein 1 (Mus musculus, UniProt P38532); assay: enhancement of HSF1-driven luciferase signal – cell-based, NIH3T3, luminescence, dose retest, confirmation (AID 435004); format: functional;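 further: stress induced by proteasome inhibitor MG132 added 30 min after compound; luciferase reporter driven by HSF1 response element in NIH3T3 cells; actives raise luminescence as potentiators of the MG132 stress response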
T6 sequence (P38532 whole entry): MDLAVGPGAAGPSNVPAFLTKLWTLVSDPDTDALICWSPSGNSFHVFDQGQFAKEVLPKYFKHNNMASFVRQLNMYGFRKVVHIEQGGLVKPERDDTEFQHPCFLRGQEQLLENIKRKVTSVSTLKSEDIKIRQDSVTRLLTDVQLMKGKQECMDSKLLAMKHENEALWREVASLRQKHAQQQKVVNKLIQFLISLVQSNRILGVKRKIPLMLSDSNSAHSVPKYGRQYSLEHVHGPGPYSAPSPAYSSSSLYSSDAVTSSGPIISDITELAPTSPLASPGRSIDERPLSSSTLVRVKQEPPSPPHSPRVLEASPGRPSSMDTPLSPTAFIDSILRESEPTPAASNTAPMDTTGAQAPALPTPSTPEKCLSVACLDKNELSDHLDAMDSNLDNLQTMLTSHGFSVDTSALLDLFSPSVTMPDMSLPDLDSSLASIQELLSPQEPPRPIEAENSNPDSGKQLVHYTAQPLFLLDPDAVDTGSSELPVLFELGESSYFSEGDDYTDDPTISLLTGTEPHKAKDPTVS

[18] = target: T3, Cytochrome P450 2C9; remark: listed apart in the source
[19] = cells; format: functional
[20] = THP-1 cell cytotoxicity, dose response, cytotoxicity control for non-replicating M. tuberculosis project (AID 489025); format: functional
[21] = target: Luciferin 4-monooxygenase (Photinus pyralis, UniProt P08659); assay: inhibition of purified Photinus pyralis luciferase – biochemical, luminescence, dose response (AID 1891)
[22] = Luminescence Cell-Based Dose Confirmation HTS to Identify Inhibitors of Platelet Dense Granule Release. [Related pubchem assays: 1663 (Primary HTS), 1678 (Summary of Project)]; format: functional
[23] = target: T4, Short transient receptor potential channel 4; assay: calcium entry via TRPC4 opening agents – cell-based, HEK293 TRPC4/mu-opioid, Fluo-4 calcium, dose response (AID 434937); format: functional

T3 sequence (P11712 whole entry): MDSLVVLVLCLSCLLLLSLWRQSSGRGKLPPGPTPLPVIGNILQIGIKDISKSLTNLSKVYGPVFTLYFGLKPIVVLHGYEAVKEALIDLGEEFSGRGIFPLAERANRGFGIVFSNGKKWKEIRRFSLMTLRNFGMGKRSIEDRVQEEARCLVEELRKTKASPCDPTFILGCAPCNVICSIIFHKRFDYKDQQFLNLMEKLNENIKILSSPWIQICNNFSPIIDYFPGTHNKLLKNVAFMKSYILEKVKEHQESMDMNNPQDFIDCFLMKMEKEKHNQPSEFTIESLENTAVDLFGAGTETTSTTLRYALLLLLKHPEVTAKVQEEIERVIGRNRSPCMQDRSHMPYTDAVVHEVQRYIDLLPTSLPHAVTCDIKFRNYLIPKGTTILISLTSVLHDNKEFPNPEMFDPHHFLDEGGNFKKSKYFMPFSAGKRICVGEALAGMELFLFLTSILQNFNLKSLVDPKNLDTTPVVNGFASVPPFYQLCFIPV
T1 sequence (P08684 whole entry): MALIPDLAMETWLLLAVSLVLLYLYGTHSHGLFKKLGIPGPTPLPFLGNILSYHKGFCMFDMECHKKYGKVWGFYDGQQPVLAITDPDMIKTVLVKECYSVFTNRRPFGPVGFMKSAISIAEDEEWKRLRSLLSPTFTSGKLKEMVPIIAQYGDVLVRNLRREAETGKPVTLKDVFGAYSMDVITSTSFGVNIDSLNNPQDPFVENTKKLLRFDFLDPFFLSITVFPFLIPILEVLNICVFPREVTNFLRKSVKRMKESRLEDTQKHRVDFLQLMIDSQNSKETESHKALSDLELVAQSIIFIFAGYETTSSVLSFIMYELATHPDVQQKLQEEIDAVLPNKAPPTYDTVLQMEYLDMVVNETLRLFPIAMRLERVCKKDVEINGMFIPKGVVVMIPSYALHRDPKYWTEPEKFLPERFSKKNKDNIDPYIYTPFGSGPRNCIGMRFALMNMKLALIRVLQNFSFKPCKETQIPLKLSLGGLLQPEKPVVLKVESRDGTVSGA
Chain of Cytochrome P450 2D6 (P10635 whole entry): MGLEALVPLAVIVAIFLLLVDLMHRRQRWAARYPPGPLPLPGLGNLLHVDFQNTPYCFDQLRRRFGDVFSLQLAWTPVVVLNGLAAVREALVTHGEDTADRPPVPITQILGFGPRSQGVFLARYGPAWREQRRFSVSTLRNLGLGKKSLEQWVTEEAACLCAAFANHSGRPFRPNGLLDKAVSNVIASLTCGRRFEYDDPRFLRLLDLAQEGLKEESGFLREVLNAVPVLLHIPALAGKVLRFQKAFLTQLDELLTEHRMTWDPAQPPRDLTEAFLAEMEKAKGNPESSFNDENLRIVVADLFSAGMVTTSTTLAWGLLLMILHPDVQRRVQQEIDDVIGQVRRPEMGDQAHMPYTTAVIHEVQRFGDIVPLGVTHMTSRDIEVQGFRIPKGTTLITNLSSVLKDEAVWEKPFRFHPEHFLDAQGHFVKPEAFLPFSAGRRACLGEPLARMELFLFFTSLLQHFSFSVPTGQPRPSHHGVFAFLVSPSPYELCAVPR
Chain of Luciferin 4-monooxygenase (P08659 whole entry): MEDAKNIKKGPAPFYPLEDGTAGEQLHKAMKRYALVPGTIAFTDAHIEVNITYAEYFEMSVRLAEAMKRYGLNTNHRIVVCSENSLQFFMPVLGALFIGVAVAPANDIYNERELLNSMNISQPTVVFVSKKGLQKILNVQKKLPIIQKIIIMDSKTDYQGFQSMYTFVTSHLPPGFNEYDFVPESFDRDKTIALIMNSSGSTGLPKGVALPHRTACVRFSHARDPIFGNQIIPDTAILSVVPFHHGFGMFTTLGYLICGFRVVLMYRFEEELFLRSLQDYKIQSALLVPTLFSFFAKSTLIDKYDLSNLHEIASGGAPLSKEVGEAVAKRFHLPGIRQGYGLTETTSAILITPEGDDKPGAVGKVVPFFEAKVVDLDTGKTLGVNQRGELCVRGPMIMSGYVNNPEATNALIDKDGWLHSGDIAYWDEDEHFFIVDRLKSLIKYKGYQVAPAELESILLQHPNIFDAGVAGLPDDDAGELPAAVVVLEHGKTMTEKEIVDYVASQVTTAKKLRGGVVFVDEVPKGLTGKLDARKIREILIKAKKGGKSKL
Chain of Cytochrome P450 2C19 (P33261 whole entry): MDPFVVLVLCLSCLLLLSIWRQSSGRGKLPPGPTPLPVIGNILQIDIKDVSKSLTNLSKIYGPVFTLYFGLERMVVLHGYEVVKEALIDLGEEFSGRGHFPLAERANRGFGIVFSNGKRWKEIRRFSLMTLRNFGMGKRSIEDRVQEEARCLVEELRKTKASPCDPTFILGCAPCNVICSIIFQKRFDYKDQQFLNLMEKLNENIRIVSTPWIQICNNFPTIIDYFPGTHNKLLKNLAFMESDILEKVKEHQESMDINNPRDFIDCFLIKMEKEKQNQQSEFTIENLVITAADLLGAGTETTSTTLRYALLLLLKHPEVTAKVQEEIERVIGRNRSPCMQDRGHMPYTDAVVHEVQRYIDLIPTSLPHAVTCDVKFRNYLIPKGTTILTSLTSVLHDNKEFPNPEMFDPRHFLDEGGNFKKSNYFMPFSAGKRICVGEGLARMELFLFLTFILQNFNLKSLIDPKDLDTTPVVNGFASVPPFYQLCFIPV

## N=C(N)NC(=N)Nc1cccc(Cl)c1
[1]
  AC50: 25.1 µM (inconclusive) and 39.8 µM (inconclusive)
[2]
  AC50: inconclusive
[3]
  AC50: 79400 nM (inconclusive)

## c1csc(-c2nc(N3CCCCC3)no2)c1
[4]
  EC50: 1220 nM (active)
[5]
  EC50: 360 nM (active)
[6]
  EC50: < 100 nM (active)
[7]
  EC50: 290 nM (active)
[8]
  EC50: < 100 nM (active)
[9]
  EC50: 380 nM (active)

## COc1ccc(OC)c(C2C3=C(O)OCC3=Nc3cc4c(cc32)OCO4)c1 (stereo unspecified)
[10]
  AC50: 10000 nM (inconclusive)
[1]
  AC50: 22.4 µM (inconclusive)
[11]
  IC50: > 80000 nM (inactive)
[12]
  IC50: > 80000 nM (inactive)
[13]
  AC50: 7940 nM (inconclusive)

## COCCn1c(SCC(=O)c2ccccc2)nc2ccccc2c1=O
[14]
  EC50: 376 nM (active)

## O=C(C1CCN(CC2CC=CCC2)CC1)N(CCc1ccccc1)Cc1ccccc1 (stereo unspecified)
[14]
  EC50: 2660 nM (active)

## O=C(c1cnccn1)N1CCC2(CC1)CCN(c1ccccn1)CC2
[2]
  AC50: inconclusive

## CCOC(=O)c1ccc(N2C(=O)CC(Nc3ccc(CCO)cc3)C2=O)cc1 (stereo unspecified)
[15]
  AC50: 8910 nM (inconclusive)
[2]
  AC50: inconclusive
[13]
  AC50: 6310 nM (inconclusive)

## O=C(Nc1ccccc1)N1CC=C(c2ccccc2)CC1
[4]
  EC50: < 100 nM (active)
[5]
  EC50: 237 nM (active)
[7]
  EC50: 272 nM (active)
[9]
  EC50: 376 nM (active)

## Cc1cc(=O)n2c(n1)SCOC2
[16]
  IC50: > 50000 nM (inactive)

## CN(NC1OC(=O)c2ccccc21)c1ncc(Cl)cc1C(F)(F)F (stereo unspecified)
[16]
  IC50: > 50000 nM (inactive)
[17]
  EC50: > 260000 nM (inactive)

## COC(=O)Cc1c(C)nc2ncnn2c1O
[16]
  IC50: > 50000 nM (inactive)

## OC1(c2ccc(Cl)cc2)CCN(Cc2c[nH]c3ccccc23)CC1
[18]
  AC50: inconclusive
[2]
  AC50: inconclusive

## CCCCNc1nc2ccccc2[nH]1
[14]
  EC50: 2990 nM (active)

## O=C(CCc1ccc(Oc2cc([N+](=O)[O-])cc([N+](=O)[O-])c2)cc1)N1CCCCC1
[19]
  IC50: 11400 nM (active)
[20]
  CC50: > 40000 nM (active)

## O=C(Nc1nccs1)c1c(O)nc2c(c1O)CCCC2
[4]
  EC50: < 100 nM (active)
[5]
  EC50: 446 nM (active)
[6]
  EC50: 999 nM (active)
[7]
  EC50: 475 nM (active)
[9]
  EC50: 504 nM (active)

## COc1cc2c(cc1OC)[C@H](c1ccccc1)CN(C)CC2
[1]
  AC50: 31.6 µM (inconclusive)
[2]
  AC50: inconclusive

## Cc1ccc(C(=O)ONc2ccc(N=O)cc2)cc1
[16]
  IC50: 29800 nM (active)
[21]
  EC50: < 88 nM (active)
[22]
  EC50: 2690 nM (active)

## CNC(=O)c1ccc(N(Cc2ccccc2)S(C)(=O)=O)cc1
[16]
  IC50: > 50000 nM (inactive)

## COc1ccc(CCN(C)CCN2C(=O)c3ccccc3C2=O)cc1OC
[14]
  EC50: 1880 nM (active)
[23]
  EC50: 1060 nM (active)
